Here are results for 8 compounds from ChEMBL document CHEMBL5291721, “A preclinical secondary pharmacology resource illuminates target-adverse drug reaction associations of marketed drugs” (Nat Commun, 2023).

For one assay, the target named is Glucagon receptor (Homo sapiens, UniProt P47871).
Assay [1] addresses 5-hydroxytryptamine receptor 2B (Homo sapiens, UniProt P41595).
Another assay concerns the target Estrogen receptor beta (Homo sapiens, UniProt Q92731).
The target in assay [2] is T1, Gastric inhibitory polypeptide receptor (Homo sapiens, UniProt P48546).
T1 sequence (P48546 whole entry): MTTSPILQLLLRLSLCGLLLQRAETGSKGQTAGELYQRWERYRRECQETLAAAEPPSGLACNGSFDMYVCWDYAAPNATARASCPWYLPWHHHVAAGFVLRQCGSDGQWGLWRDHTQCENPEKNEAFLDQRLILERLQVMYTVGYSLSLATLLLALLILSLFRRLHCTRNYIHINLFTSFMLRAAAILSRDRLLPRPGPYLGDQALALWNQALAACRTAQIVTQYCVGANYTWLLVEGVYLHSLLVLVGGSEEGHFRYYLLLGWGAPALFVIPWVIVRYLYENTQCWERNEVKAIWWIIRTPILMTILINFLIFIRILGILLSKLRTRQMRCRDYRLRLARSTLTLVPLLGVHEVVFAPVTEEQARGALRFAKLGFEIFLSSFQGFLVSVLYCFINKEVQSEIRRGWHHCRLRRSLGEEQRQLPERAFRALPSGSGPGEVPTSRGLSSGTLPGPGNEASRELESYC

Assay [3] concerns the target T2, Amine oxidase [flavin-containing] A (Homo sapiens, UniProt P21397).
T2 sequence (P21397 whole entry): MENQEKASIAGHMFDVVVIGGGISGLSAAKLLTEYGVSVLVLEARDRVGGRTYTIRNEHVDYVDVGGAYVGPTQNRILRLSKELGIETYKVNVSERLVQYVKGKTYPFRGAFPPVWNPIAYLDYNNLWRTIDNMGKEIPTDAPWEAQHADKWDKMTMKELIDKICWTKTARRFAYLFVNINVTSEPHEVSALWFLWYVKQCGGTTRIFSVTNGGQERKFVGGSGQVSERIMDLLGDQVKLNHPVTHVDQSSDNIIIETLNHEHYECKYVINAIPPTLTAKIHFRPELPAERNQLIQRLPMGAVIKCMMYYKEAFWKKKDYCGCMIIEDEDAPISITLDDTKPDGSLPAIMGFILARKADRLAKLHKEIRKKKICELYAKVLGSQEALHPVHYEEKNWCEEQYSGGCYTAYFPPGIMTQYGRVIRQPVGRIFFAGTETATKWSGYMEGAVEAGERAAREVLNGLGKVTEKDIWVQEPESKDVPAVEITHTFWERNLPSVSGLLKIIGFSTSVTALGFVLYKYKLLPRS
The assay is classed as functional.

In assay [4] the target is 3',5'-cyclic-AMP phosphodiesterase 4A (Homo sapiens, UniProt P27815). It is filed as functional.
Sequence of 3',5'-cyclic-AMP phosphodiesterase 4A (P27815 whole entry): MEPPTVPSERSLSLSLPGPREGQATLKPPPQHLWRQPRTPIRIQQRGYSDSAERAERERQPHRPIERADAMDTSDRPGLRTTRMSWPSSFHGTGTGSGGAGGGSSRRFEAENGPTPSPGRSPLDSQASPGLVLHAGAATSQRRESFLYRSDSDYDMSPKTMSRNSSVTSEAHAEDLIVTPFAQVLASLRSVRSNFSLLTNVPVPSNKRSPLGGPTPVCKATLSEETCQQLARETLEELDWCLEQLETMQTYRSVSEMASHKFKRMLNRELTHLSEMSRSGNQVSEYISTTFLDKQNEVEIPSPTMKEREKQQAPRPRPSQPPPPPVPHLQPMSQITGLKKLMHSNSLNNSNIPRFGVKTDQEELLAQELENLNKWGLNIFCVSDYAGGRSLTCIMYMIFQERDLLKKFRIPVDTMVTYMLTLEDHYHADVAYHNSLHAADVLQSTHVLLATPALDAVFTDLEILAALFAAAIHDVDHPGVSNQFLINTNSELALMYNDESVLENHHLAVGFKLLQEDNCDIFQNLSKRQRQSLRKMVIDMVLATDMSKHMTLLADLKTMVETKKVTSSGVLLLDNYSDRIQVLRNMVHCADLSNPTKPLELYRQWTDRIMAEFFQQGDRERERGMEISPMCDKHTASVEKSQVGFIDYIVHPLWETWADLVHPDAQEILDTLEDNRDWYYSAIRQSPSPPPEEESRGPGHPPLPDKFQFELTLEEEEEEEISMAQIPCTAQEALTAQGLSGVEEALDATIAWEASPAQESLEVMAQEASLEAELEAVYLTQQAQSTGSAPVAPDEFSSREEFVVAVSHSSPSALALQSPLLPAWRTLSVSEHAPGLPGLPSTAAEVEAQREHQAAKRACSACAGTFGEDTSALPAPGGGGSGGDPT
The target in a further assay is T3, Estrogen receptor (Homo sapiens, UniProt P03372).
T3 sequence (P03372 whole entry): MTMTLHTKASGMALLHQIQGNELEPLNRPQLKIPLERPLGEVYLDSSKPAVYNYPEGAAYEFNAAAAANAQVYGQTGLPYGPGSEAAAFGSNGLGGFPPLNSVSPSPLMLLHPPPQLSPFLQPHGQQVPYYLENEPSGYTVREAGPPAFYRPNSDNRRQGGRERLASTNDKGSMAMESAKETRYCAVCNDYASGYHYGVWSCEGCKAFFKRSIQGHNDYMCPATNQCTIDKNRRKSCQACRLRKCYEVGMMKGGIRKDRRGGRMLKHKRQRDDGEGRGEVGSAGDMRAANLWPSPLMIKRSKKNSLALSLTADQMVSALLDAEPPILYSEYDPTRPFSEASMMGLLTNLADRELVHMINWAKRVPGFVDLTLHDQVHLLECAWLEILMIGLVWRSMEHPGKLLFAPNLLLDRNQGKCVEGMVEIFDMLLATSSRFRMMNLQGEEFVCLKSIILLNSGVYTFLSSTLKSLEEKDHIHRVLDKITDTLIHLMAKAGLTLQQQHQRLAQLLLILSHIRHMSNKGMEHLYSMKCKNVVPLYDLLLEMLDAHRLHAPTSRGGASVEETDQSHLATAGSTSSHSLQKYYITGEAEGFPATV

A further assay has as its target Prothrombin (Homo sapiens, UniProt P00734). It is filed as functional.
The target in a further assay is T4, Thromboxane A2 receptor (Homo sapiens, UniProt P21731).
T4 sequence (P21731 whole entry): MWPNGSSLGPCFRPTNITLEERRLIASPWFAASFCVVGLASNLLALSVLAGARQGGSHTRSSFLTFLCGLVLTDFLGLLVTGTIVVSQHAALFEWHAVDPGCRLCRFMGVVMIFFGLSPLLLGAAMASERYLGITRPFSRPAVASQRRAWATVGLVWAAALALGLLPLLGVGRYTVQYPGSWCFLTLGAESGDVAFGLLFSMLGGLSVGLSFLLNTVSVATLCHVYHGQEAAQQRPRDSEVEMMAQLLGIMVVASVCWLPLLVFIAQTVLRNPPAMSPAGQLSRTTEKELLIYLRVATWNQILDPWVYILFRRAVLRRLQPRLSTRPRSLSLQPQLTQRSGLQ
The assay is classed as functional, cell-based.

The target in assay [5] is T5, Peroxisome proliferator-activated receptor gamma (Homo sapiens, UniProt P37231).
T5 sequence (P37231 whole entry): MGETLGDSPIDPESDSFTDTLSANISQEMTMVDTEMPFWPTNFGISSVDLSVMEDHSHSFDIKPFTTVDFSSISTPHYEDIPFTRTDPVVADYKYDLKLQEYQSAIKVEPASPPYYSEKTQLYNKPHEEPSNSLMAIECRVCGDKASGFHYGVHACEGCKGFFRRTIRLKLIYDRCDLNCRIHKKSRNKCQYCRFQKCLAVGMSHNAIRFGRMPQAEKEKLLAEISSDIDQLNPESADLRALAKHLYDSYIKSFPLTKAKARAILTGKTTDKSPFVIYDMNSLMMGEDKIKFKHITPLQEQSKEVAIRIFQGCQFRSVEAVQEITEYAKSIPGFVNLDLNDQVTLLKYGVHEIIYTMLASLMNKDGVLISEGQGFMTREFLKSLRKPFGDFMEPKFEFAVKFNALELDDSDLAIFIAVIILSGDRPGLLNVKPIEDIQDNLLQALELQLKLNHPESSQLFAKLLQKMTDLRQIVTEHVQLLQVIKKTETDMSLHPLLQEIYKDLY
It is filed as functional.

The target in a further assay is Histamine H1 receptor (Homo sapiens, UniProt P35367). It is filed as functional, cell-based.
Sequence of Histamine H1 receptor (P35367 whole entry): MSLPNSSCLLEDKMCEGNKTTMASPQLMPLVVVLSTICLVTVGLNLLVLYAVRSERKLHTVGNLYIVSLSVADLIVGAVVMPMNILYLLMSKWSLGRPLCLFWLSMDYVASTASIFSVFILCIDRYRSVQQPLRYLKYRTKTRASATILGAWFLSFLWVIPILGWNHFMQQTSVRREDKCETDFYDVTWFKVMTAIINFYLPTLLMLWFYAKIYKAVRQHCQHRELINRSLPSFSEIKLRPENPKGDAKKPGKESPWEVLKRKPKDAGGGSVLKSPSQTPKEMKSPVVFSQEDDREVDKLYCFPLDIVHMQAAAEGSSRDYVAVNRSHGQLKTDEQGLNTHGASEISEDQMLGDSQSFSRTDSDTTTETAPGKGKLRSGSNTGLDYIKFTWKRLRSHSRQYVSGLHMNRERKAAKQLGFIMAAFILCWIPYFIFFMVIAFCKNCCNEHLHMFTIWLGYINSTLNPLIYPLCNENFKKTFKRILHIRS

Bounds are passed on as bounds.
Further: assay procedure not described here.

Sequence of 5-hydroxytryptamine receptor 2B (P41595 whole entry): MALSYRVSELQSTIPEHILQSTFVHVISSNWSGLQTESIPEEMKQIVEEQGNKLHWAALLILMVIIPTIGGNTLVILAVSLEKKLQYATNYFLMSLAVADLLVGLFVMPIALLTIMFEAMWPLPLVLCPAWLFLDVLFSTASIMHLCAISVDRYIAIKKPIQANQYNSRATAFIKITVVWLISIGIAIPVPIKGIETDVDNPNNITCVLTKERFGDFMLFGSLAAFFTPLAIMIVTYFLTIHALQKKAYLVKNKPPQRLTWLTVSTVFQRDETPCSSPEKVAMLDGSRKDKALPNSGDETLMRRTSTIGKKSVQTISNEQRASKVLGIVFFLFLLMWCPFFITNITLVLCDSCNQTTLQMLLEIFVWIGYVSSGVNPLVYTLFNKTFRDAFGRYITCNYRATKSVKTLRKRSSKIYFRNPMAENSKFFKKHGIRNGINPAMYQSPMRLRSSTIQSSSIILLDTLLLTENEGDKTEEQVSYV
Sequence of Glucagon receptor (P47871 whole entry): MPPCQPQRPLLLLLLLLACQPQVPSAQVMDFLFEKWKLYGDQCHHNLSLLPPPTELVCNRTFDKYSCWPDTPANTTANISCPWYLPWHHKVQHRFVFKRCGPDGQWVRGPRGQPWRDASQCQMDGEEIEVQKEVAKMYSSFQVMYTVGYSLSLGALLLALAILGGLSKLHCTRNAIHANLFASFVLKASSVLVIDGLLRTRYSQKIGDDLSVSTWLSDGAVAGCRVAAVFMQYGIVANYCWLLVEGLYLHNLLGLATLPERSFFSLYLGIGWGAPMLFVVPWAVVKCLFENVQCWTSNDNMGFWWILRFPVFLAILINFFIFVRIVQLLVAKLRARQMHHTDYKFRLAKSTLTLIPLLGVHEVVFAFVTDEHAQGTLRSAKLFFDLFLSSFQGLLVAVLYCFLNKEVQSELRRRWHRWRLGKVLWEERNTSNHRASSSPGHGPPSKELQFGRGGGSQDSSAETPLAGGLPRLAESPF
Sequence of Estrogen receptor beta (Q92731 whole entry): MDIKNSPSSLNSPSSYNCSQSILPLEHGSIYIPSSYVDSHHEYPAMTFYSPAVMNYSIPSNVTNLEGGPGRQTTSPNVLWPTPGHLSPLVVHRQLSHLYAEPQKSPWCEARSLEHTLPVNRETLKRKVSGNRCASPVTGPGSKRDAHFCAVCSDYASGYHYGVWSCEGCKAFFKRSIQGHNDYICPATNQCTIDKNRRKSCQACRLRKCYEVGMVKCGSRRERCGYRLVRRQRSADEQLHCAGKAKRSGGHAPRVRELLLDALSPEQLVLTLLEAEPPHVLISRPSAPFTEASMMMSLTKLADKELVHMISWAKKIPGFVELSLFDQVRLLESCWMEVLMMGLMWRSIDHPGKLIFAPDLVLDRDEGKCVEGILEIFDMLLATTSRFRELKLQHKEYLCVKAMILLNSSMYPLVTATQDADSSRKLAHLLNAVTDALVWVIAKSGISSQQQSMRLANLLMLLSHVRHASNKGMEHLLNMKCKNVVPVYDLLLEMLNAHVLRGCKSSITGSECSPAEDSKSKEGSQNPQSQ

On to `Cn1c(=O)cc(N2CCC[C@@H](N)C2)n(Cc2ccccc2C#N)c1=O` [ALOGLIPTIN], for which the AC50 at Glucagon receptor is above 30 µM; in assay [1] it was above 10 µM; on Estrogen receptor beta it was above 30 µM; in [2], above 30 µM.
Consider `Nc1c2ccccc2nc2ccccc12` [AMINACRINE], for which the AC50 (in [3]; in assay [4]; on Estrogen receptor; on Prothrombin; at Thromboxane A2 receptor) was above 30 µM in each case.
With `CCN1CCCC1CNC(=O)c1cc(S(=O)(=O)CC)c(N)cc1OC` (configuration not stated) [AMISULPRIDE], the AC50 (in assay [5]; on Histamine H1 receptor) was above 30 µM in each case.
With `Oc1ccc2c(c1)[C@@]13CCCC[C@@]1(O)[C@@H](C2)N(CC1CCC1)CC3` [BUTORPHANOL], the AC50 in assay [5] was above 30 µM.
For `CC(=O)OCC(=O)[C@@]1(O)[C@H](C)C[C@H]2[C@@H]3CCC4=CC(=O)C=C[C@]4(C)[C@@]3(F)[C@@H](O)C[C@@]21C` [DEXAMETHASONE ACETATE], the AC50 (on Glucagon receptor; at Estrogen receptor beta; in [2]) was above 30 µM each time.
In the case of `O=C(O)CCCCC1CCSS1` (stereo not drawn) [LIPOIC ACID, ALPHA], the AC50 in assay [3] is above 30 µM; in assay [4], above 30 µM; at Estrogen receptor it was above 10 µM; on Prothrombin, above 30 µM; on Thromboxane A2 receptor, above 30 µM.
In turn, `OCc1cc(C(O)CNCCCCCCOCCCCc2ccccc2)ccc1O` (configuration not stated) [SALMETEROL] had an AC50 on Histamine H1 receptor above 30 µM.
`Cn1cnc2c(F)c(Nc3ccc(Br)cc3Cl)c(C(=O)NOCCO)cc21` [SELUMETINIB] had an AC50 in assay [1] above 10 µM.

In general, AC50 refers to the midpoint of the concentration-response curve, whichever way the signal moves. High values mean activity only at high concentration, low ones activity at low concentration.
